Measurements published in patent publication US5753673A, “Quinolinecarboxylic acid derivatives” (Taisho Pharmaceutical Co., Ltd., priority 1994, dated 1998).
Counter-ions that a name gives are not always drawn.

Columns and labels:
[1] = biological target: T1, serotonin 4 receptor (5-HT4) (Cavia porcellus, UniProt O70528); experiment: Stimulating activity on serotonin 4 receptor (twitch response in guinea pig ileum); format: cell-based
T1 construct: from tissue; host or cells: longitudinal muscle strips of guinea pig ileum (Harley guinea pigs)
Protocol: Stimulating activity on serotonin 4 receptor
From Harley guinea pigs weighing 250 to 400 g, a section of ileum 10 to 20 cm proximal to the ileocecal junction was removed. Longitudinal muscle strips obtained from the ileum were used for this assay. The preparations were suspended in Krebs' solution at 32 to 34° C., bubbled continuously with 95% O2 and 5% CO2, and subjected to initial tension of about 0.8 g. Responses were recorded isometrically. Twitch responses were evoked by electrical stimulation (0.2 Hz, 1 msec pulse duration). The preparations were stimulated at supramaximal voltage for 2 to 3 hours, and were then allowed to equilibrate for about 1 hour at submaximal voltage. […] The preparations were left for at least 45 minutes before cumulative addition of each agonist.
The quinolinecarboxylic acid derivatives of the present invention were employed as sample compounds. For comparison, the following compounds were employed. These compounds were diluted by dissolving them in distilled water or in DMSO.
The data obtained was analyzed by RS1 (BBN Software Product Co.).

5-HT4 receptor = biological target: T2, 5-HT4 receptor (Cavia porcellus, UniProt O70528); experiment: Inhibition of 5-HT4 receptor-binding ([^3 H]GR113808 binding in guinea pig ileum)
T2 construct: The longitudinal muscle strip from guinea pig was homogenized; from tissue; host or cells: membranes of guinea pig ileum longitudinal muscle strip
Protocol: Effect on inhibition of 5-HT4 receptor-binding
The effect on inhibition of 5-HT4 receptor-binding of the quinolinecarboxylic acid derivatives of the present invention was examined according to the method described in GROSSMAN et al., Br. J. Pharmacol., 109, 618 (1993).
The longitudinal muscle strip from guinea pig was homogenized in 0.32M sucrose with a Teflon-glass homogenizer. After centrifugation at 900 G for 10 minutes, the upper fraction of lipids and precipitates was discarded and the supernatant was centrifuged at 100,000 G (48,000 rpm) for an hour. The pellet was resuspended in 50 mM HEPES buffer. After incubation at 37° C. for 30 minutes, the suspension was centrifuged at 48,000 rpm for 20 minutes. The pellet was suspended in HEPES buffer supplemented with 10^-6 M pargyline and 0.1% ascorbic acid. The suspension was used for the binding assay.
Non-specific binding was defined as that taken in the presence of 3×10^-5 M 5-HT. B/F separation was performed through GF/B filter treated with 0.1% polyethyleneimine, using a cell harvester. Washing was performed once.

Dopamine D2 receptor = biological target: T3, Dopamine D2 receptor (Rattus norvegicus, UniProt P61169); experiment: Selectivity for receptors: dopamine D2 receptor, inhibition of [^3 H] raclopride binding to rat striatal membrane; details: [^3 H] raclopride 1 nM, symbol, no activity in 10 μM, read-out: Dopamine D2 receptor antagonizing action (IC50)
T3 construct: The rat striatum was homogenized in 50 mM Tris hydrochloride buffer; from tissue; host or cells: rat striatal membranes
Protocol: (§1) The selectivity for receptors of the quinolinecarboxylic acid derivatives of the present invention was examined by the following method.
The affinity to dopamine 2 (D2) receptor was examined according to the method described in MALMBERG, A. et al., Mol Pharmacol., 43, 749-754 (1993).
The affinity for D2 receptor was studied in terms of the inhibition of [^3 H] raclopride (Daiichi Kagaku Yakuhin Co.) binding to rat striatal membrane. The rat striatum was homogenized in 50 mM Tris hydrochloride buffer (pH 7.4) followed by centrifugation at 48,000 G. The pellet was washed once with Tris hydrochloride buffer. Then the pellet was suspended in 50 mM Tris hydrochloride buffer (containing 120 mM NaCl, 5 mM KCl, 2 mM CaCl2, 1 mM MgCl2, pH 7.4) and provided for use as the membrane preparation. The membrane preparation (0.5 mg protein/ml) was reacted with 1 nM [3H] raclopride at 25° C. for 60 minutes. After the reaction, the membrane was caught by a harvester. Non-specific binding was defined as that taken in the presence of 10 μM haloperidol.

5-HT3 receptor = biological target: T4, 5-HT3 receptor (Rattus norvegicus, UniProt P35563); experiment: Selectivity for receptors: 5-HT3 receptor, inhibition of [^3 H]GR65630 binding to rat cerebral cortex membrane; details: [^3 H]GR65630 0.2 nM, read-out: 5-HT3 receptor antagonizing action (IC50)
T4 construct: The rat cerebral cortex was homogenized in 50 mM Tris hydrochloride buffer; from tissue; host or cells: rat cerebral cortex membranes
T4 sequence (P35563 24-483): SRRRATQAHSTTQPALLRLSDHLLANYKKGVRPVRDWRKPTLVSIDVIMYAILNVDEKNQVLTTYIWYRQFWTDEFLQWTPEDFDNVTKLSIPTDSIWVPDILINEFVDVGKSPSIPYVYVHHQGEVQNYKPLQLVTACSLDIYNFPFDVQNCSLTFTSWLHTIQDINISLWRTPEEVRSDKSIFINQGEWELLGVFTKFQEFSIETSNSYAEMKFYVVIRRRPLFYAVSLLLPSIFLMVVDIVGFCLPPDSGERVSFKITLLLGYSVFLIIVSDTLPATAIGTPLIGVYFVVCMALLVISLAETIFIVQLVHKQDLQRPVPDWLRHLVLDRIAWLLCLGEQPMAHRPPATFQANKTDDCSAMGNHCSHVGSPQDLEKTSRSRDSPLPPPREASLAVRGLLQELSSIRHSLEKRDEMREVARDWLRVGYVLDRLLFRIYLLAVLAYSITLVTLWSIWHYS
Protocol: as §1
The affinity for serotonin 3 receptor was examined by the method described in […], G. J. et al., Nature (London), 330, 746-748 (1987).
The affinity to serotonin 3 (5-HT3) was examined in terms of inhibition of [^3 H]GR65630 binding (Daiichi Kagaku Yakuhin Co.) binding to rat cerebral cortex membrane. The rat cerebral cortex was homogenized in 50 mM Tris hydrochloride buffer (pH 7.4) followed by centrifugation at 48,000 G. The precipitates were washed once with Tris hydrochloride buffer. Then the precipitates were suspended in 50 mM Tris hydrochloride buffer and provided for use as the membrane preparation. The membrane preparation was reacted with 0.2 nM [^3 H]GR65630 at 37° C. for 30 minutes. After the reaction, the membrane was caught by a harvester. Non-specific binding was defined as the binding taken in the presence of 1 μM zacopride.

5-HT1A receptor = biological target: T5, 5-HT1A receptor (Rattus norvegicus, UniProt P19327); experiment: Selectivity for receptors: 5-HT1A receptor, inhibition of [^3 H] 8-OH-DPAT binding to rat cerebral cortex membrane; details: [^3 H] 8-OH-DPAT 1 nM, rat cerebral cortex membrane; symbol, no activity in 10 μM; read-out: 5-HT1A receptor antagonizing action (IC50)
T5 construct: The rat cerebral cortex was homogenized in 50 mM Tris hydrochloride buffer; from tissue; host or cells: rat cerebral cortex membranes
T5 sequence (P19327 1-422): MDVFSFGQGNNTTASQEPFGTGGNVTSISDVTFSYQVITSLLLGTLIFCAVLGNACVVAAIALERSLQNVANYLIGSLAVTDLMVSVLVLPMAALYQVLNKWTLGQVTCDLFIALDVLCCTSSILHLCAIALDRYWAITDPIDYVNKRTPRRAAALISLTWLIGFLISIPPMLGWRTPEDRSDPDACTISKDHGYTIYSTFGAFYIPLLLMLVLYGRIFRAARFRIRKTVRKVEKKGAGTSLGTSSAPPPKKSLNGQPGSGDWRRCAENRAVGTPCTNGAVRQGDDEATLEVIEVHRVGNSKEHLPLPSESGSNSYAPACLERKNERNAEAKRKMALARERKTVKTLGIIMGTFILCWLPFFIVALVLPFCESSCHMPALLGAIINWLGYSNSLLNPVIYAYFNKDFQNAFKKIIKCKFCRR
Protocol: as §1
The affinity to serotonin 1A (5-HT1A) receptor was examined by the method described in […], J. R. et al., Biochem. Pharmacol., 12, 1943-1949 (1986).
The affinity to serotonin 1A (5-HT1A) was examined in terms of inhibition of [^3 H] 8-OH-DPAT (Daiichi Kagaku Yakuhin Co.) binding to rat cerebral cortex membrane. The rat cerebral cortex was homogenized in 50 mM Tris hydrochloride buffer (pH 7.4) followed by centrifugation at 48,000 G.
The pellet was washed once with Tris hydrochloride buffer. Then the pellet was suspended in 50 mM Tris hydrochloride buffer (supplemented with 0.01 mM pargyline and 0.1% ascorbic acid, pH 7.7) and provided for use as the membrane preparation. The membrane specimen was reacted with 1 nM [^3 H] 8-OH-DPAT at 37° C. for 15 minutes. After the reaction, the membrane was caught by a harvester. Non-specific binding was defined as that taken in the presence of 10 μM 5-HT.

T1 sequence (O70528 whole entry): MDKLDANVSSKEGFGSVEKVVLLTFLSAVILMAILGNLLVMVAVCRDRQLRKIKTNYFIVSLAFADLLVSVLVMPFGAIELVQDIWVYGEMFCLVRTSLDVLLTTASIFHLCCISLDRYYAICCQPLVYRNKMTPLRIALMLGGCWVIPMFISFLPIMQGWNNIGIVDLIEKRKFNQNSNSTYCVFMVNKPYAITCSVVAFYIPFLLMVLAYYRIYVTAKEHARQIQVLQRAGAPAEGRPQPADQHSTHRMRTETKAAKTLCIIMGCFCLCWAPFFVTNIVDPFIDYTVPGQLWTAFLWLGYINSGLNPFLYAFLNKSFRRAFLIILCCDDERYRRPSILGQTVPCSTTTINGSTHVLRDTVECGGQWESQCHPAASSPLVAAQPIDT
T2 sequence (O70528 whole entry): as above
T3 sequence (P61169 whole entry): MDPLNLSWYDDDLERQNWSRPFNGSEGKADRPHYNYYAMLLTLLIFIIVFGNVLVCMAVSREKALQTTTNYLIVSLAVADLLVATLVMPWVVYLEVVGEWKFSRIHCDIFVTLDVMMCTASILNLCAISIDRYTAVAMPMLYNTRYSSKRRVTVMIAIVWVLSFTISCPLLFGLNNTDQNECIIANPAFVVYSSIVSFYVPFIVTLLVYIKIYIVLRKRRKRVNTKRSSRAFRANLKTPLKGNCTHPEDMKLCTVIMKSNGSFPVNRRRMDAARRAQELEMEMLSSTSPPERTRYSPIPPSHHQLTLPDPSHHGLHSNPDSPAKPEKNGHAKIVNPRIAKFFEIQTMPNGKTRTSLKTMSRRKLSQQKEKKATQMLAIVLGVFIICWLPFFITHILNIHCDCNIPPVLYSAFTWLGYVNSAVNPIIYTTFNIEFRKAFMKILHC

CC(C)n1c(=O)c(C(=O)NC2CC3CCC(C2)N3CCCO)cc2ccccc21 (stereo not drawn) [Compound 5, Endo-N-(8-(3-hydroxypropyl)-8-azabicyclo[3.2.1]oct-3-yl)-1-isopropyl-2-oxo-1,2-dihydro-3-quinolinecarboxamide]
EC50 [1]: 32 nM
IC50 (5-HT4 receptor): 42.2 ± 6.29 nM
IC50 (Dopamine D2 receptor): > 10000 nM
IC50 (5-HT3 receptor): 977 nM
IC50 (5-HT1A receptor): > 10000 nM

CCOCCN1C2CCC1CC(NC(=O)c1cc3ccccc3n(C(C)C)c1=O)C2 (stereo not drawn) [Compound 11, Endo-N-(8-(2-ethoxyethyl)-8-azabicyclo[3.2.1]oct-3-yl)-1-isopropyl-2-oxo-1,2-dihydro-3-quinolinecarboxamide]
EC50 [1]: 18.7 nM
IC50 (5-HT4 receptor): 68.7 ± 7.32 nM
IC50 (Dopamine D2 receptor): > 10000 nM
IC50 (5-HT3 receptor): 423 nM
IC50 (5-HT1A receptor): > 10000 nM

COCCN1[C@@H]2CC[C@H]1C[C@@H](NC(=O)c1cc3ccccc3n(C(C)C)c1=O)C2 [Compound 10, endo-N-(8-(2-methoxyethyl)-8-azabicyclo[3.2.1]oct-3-yl)-1-isopropyl-2-oxo-1,2-dihydro-3-quinolinecarboxamide hydrochloride]
EC50 [1]: 15 nM
IC50 (5-HT4 receptor): 78.5 ± 14.6 nM
IC50 (Dopamine D2 receptor): > 10000 nM
IC50 (5-HT3 receptor): 811 nM
IC50 (5-HT1A receptor): > 10000 nM

CSCCN1C2CCC1CC(NC(=O)c1cc3ccccc3n(C(C)C)c1=O)C2 (stereo not drawn) [Compound 17, Endo-N-(8-(2-(methylthio)ethyl)-8-azabicyclo[3.2.1]oct-3-yl)-1-isopropyl-2-oxo-1,2-dihydro-3-quinolinecarboxamide]
EC50 [1]: 48 nM

C=CCN1C2CCC1CC(OC(=O)c1cc3ccccc3n(C(C)C)c1=O)C2 (stereo not drawn) [Compound 35, endo-8-(2-propenyl)-8-azabicyclo[3.2.1]oct-3-yl 1-isopropyl-2-oxo-1,2-dihydro-3-quinolinecarboxylate hydrochloride]
EC50 [1]: 54.4 nM

CC(C)n1c(=O)c(C(=O)NC2CC3CCC(C2)N3CCCCO)cc2ccccc21 (stereo not drawn) [Compound 6, Endo-N-(8-(4-hydroxybutyl)-8-azabicyclo[3.2.1]oct-3-yl)-1-isopropyl-2-oxo-1,2-dihydro-3-quinolinecarboxamide]
EC50 [1]: 38.5 nM

CC(C)n1c(=O)c(C(=O)NC2CC3CCC(C2)N3CCC#N)cc2ccccc21 (stereo not drawn) [Compound 33, Endo-N-(8-(2-cyanoethyl)-8-azabicyclo[3.2.1]oct-3-yl)-1-isopropyl-2-oxo-1,2-dihydro-3-quinolinecarboxamide]
EC50 [1]: 35.8 nM

CCOC(=O)CCCN1[C@@H]2CC[C@H]1C[C@@H](OC(=O)c1cc3ccccc3n(C(C)C)c1=O)C2 [Compound 51, Endo-8-(3-(ethoxycarbonyl)propyl)-8-azabicyclo[3.2.1]oct-3-yl 1-isopropyl-2-oxo-1,2-dihydro-3-quinolinecarboxylate hydrochloride]
EC50 [1]: 23 nM

CC(C)n1c(=O)c(C(=O)NC2CC3CCC(C2)N3CC2CCCCO2)cc2ccccc21 (stereo not drawn) [Compound 22, Endo-N-(8-(tetrahydropyran-2-methyl)-8-azabicyclo[3.2.1]oct-3-yl)-1-isopropyl-2-oxo-1,2-dihydro-3-quinolinecarboxamide]
EC50 [1]: 24 nM

CC(=O)OCCCCCN1C2CCC1CC(NC(=O)c1cc3ccccc3n(C(C)C)c1=O)C2 (stereo not drawn) [Compound 9, Endo-N-(8-(5-acetoxypentyl)-8-azabicyclo[3.2.1]oct-3-yl)-1-isopropyl-2-oxo-1,2-dihydro-3-quinolinecarboxamide hydrochloride]
EC50 [1]: 33 nM

CC(C)n1c(=O)c(C(=O)O[C@H]2C[C@H]3CC[C@@H](C2)N3CCOc2ccccc2)cc2ccccc21 [Compound 49, Endo-8-(2-phenoxyethyl)-8-azabicyclo[3.2.1]oct-3-yl 1-isopropyl-2-oxo-1,2-dihydro-3-quinolinecarboxylate hydrochloride]
EC50 [1]: 39 nM

CC(C)n1c(=O)c(C(=O)OC2CC3CCC(C2)N3CCO)cc2ccccc21 (stereo not drawn) [Compound 37, Endo-8-(2-hydroxyethyl)-8-azabicyclo[3.2.1]oct-3-yl 1-isopropyl-2-oxo-1,2-dihydro-3-quinolinecarboxylate hydrochloride]
EC50 [1]: 16.1 nM

CC(C)n1c(=O)c(C(=O)NC2CC3CCC(C2)N3CCCCCO)cc2ccccc21 (stereo not drawn) [Compound 7, Endo-N-(8-(5-hydroxypentyl)-8-azabicyclo[3.2.1]oct-3-yl)-1-isopropyl-2-oxo-1,2-dihydro-3-quinolinecarboxamide]
EC50 [1]: 30.8 nM

CC(C)n1c(=O)c(C(=O)N[C@H]2C[C@H]3CC[C@@H](C2)N3CCN2CCOCC2)cc2ccccc21 [Compound 20, endo-N-(8-(2-morpholinoethyl)-8-azabicyclo[3.2.1]oct-3-yl)-1-isopropyl-2-oxo-1,2-dihydro-3-quinolinecarboxamide]
EC50 [1]: 25.5 nM
IC50 (5-HT4 receptor): 78.1 ± 14.5 nM
IC50 (Dopamine D2 receptor): > 10000 nM
IC50 (5-HT3 receptor): 509 nM
IC50 (5-HT1A receptor): > 10000 nM
